The values that follow come from PMC8116649 (Frontiers in Pharmacology, 2021).

A short description of data set [1]: Caffeine pharmacokinetics in saliva/plasma of untreated human volunteers (baseline). Particulars: caffeine 200 mg single oral dose. In kind it is in vivo. The protocol:
Male human volunteers, between 21 and 30 years old and living in the Metro Vancouver area, were recruited for the study. The volunteers had to meet specific eligibility criteria: not smoking, use medication, consume alcohol heavily or have any health concerns which may affect the test results. […] The participants were also asked to refrain from consuming solid foods 3.0 h prior to the study. The study protocol was approved by the Simon Fraser University Office of Research Ethics with approval number 2012s0565 and registration number ISRCTN83028296.
This study adopted a non-randomized, single-blinded, and crossover design in which each subject acted as their own control ([Sheriffdeen et al., 2019]). […] In the ARFP extract treatment study, the same group of volunteers was used after a 4 days washout period. […] Saliva samples were collected at 0.5, 1.0, 1.5, 2.0, 2.5, 3.0, 4.0, 6.0, 8.0, 12.0, 24.0, 36.0, and 48.0 h post-dosing. All saliva samples were stored in the dark at freezing temperature until they were ready for extraction and HPLC-UV analysis.
The saliva samples were thawed at room temperature, mixed by vortexing for 30 s, and centrifuged for 10 min at 4,000×g. Exactly 200.0 µl aliquot of the saliva sample was removed and spiked with 100.0 µl of the internal standard (ISTD) benzotriazole (50.0 μg/ml). […]
The following pharmacokinetic parameters were determined: the Tmax (time to reach peak plasma level) and Cmax (concentration of peak plasma level) were determined by visual inspection. The AUC0-inf (area under plasma concentration-time curve from zero to infinity) was determined by non-compartmental analysis using the PK Solver software ([Zhang et al., 2010]). The AUC0-inf was determined using the log-linear trapezoidal rule from dosing time to last time point and extrapolated to infinity by dividing the last concentration with the elimination rate constant. The AUC ratio was calculated by dividing the AUC0-inf after ARFP extract pretreatment with the AUC0-inf before ARFP extract pretreatment.

For data set [2] the following is noted: cited from earlier work.
Data set [3] addresses 7-ethoxycoumarin deethylase. More on the design: method as in Tinel et al., 1987. The following applies: HLMs; ref Tinel et al., 1987; cited from earlier work.
The target of data set [4] is benzo(a)pyrene hydroxylase. The arrangement: method as in Tinel et al., 1987. The following applies: HLMs; ref Tinel et al., 1987; cited from earlier work.
Data set [5] has as its target T1, CYP1A2 (Homo sapiens, UniProt P05177).
T1 sequence (P05177 1-516): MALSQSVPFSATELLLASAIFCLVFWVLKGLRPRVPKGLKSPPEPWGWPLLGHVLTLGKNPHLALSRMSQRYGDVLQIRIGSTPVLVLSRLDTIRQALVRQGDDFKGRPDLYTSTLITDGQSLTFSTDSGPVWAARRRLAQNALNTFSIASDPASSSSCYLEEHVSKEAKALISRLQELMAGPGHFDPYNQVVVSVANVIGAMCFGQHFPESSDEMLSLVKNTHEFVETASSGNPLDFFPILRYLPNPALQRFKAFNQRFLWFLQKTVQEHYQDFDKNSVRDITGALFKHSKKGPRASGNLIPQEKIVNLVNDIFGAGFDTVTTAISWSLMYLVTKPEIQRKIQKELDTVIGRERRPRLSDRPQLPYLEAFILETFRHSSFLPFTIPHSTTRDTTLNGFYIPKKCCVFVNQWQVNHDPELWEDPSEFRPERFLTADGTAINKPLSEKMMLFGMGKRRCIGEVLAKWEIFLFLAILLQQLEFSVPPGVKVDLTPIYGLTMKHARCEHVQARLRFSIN
Description: Pre-incubation time- and furanocoumarin concentration-dependent inhibition of caffeine metabolism in HLMs. The following applies: for KI: HLMs 1.2 mg/ml, pre-incubation with NADPH, CYP 1A2 inactivation.
Description: (§1) In the pre-incubation step, HLMs (1.2 mg/ml) were pre-incubated with different furanocoumarin concentrations in the presence of NADPH for various time periods at 37°C. […] The final incubation volume was 320.0 µl. At the conclusion of a 10 min incubation, the reaction was stopped by the addition of a 10% TCA solution. The incubation mixture was extracted by a SPE tube, and the radioactivity in the eluant was counted in a liquid scintillation counter as described earlier.
(§2) The observed in vitro rate constant (kobs) was calculated using the slopes of linear regression analyses from natural logarithm (Ln) percentage remaining activity against pre-incubation time plots. The maximum inactivation rate constant (kinact) was calculated using the non-linear regression analyses of plots of the inactivator concentrations against kobs values. […] The plotting was performed using the GraphPad Prism version 5.04 (GraphPad Software, San Diego, CA).

For data set [6] the following is noted: cited from earlier work. The source holds these as a separate data set.
The target in data set [7] is ethoxyresorufin-O-deethylase. More on the design: method as in Cai et al., 1993. The following applies: mice liver microsomes; ref Cai et al., 1993; cited from earlier work.
In data set [8] the target is T1, CYP1A2. Description: Caffeine-N-demethylase assay with 14C-caffeine in human liver microsomes, IC50 determination. In general terms: Liver microsomes are a subcellular fraction often used to study metabolism.
Description: Incubation was conducted at 37°C in a metabolic incubator with a 60 cycles/min shaking rate. At the conclusion of 10 min incubation, the reaction was terminated by the addition of 10% TCA solution (50.0 µl). The incubation mixture was centrifuged at 4,000×g. An aliquot (300.0 µl) of the supernatant was applied to a 3.0 ml Sigma-Aldrich Superclean ENVI-Carbon solid phase extraction (SPE) tube (0.25 g, 80–100 mesh). […] The eluant was collected into a scintillation vial. After the addition of 15.0 ml scintillation cocktail, the radioactivity in the vial was counted in a liquid scintillation counter. The results were expressed as residual counts of the control incubation.
CYP 1A2 activity inhibition was plotted against log furanocoumarin concentration after normalizing the inhibition data from 0–100%. The resulting inhibition-concentration curves were fitted separately to a four-parameter logistic function to determine the IC50 values. Curve fitting was performed using the GraphPad Prism version 5.04 (GraphPad Software, San Diego, CA). The IC50 represented the concentration of the furanocoumarin chemical to evoke a half maximal inhibition of the CYP 1A2 activity.
For data set [9], the target named is T1, CYP1A2.
Description: as §1, §2
The conditions of data set [10]: rats, cited from earlier work.
The target of another data set is human CYP 1A2 isozyme. More on the design: method as in Kang et al., 2011. The following applies: mechanism-based inhibition; ref Kang et al., 2011; cited from earlier work.

Each structure is given as a SMILES string. Like-named read-outs stand apart in the source and are kept apart here.

As to `Cn1c(=O)c2c(ncn2C)n(C)c1=O` [Caffeine, caffeine], the “Tmax UT” value in data set [1] (plasma (from saliva), untreated volunteers of the study group of that line) was 0.8 h. The peak concentration (Cmax) in data set [1] (male, human, plasma (calculated from saliva concentrations), po, 200 mg, untreated volunteers) is 5100 ng/mL. Moreover, in data set [1] (male, human, plasma (calculated from saliva concentrations), po, 200 mg, untreated volunteers, read-out: AUC0-inf UT), the AUC(0-inf) was 33500 to 55800 ng·h/mL. The exposure (AUC) was 28500 ± 14900 ng·h/mL in data set [2] (12 human volunteers, 167 mg orally, ref Fuhr et al., 1993) and 60800 ± 23700 ng·h/mL in data set [2] (healthy volunteers, 5 mg/kg dose, mean ± SD, ref Kamimori et al., 1995). For the same molecule, the “Time to reach the peak concentration in the blood” value in data set [2] (single oral dose, ref Tang-Liu et al., 1983) is at most 1.0 h.

Turning to `COc1c2occc2cc2ccc(=O)oc12` [8-MOP, 8-methoxypsoralen], the concentration for half-maximal inhibition (IC50) in data set [3] and in [4] was around 25000 nM in each case. At CYP1A2 [5], this molecule displayed a KI of 780 ± 320 nM.

On to `COc1c2ccoc2cc2oc(=O)ccc12` [5-MOP, 5-methoxypsoralen], for which the Tmax is on record as 2.8 ± 0.8 h in [6] (PUVA patients, ref Shephard et al., 1999) and 3.0 ± 0.6 h in data set [6] (healthy humans, ref Stolk et al., 1981). Also, the IC50 is 2300 nM in [7] and 130 nM at CYP1A2 [8]. The KI at CYP1A2 [5] amounted to 3730 ± 3660 nM. For the same molecule, the maximal inactivation rate constant (kinact) on CYP1A2 [5] (human, human liver microsomes, probe caffeine (6.4 µM non-labeled + 0.2 µCi 14C-caffeine)) was 0.00583 s⁻¹.

As to `COc1c2ccoc2c(OC)c2oc(=O)ccc12` [ISOP, isopimpinellin], the values for the KI on CYP1A2 [9] and on human CYP 1A2 isozyme were 4480 ± 560 nM and 1200 nM, respectively. The time of peak concentration (Tmax) in [10] (oral dose of C. monnieri herbal product, ref Li et al., 2014) is listed as 1.1 ± 0.3 h; in data set [10] (oral dose of Toddalia asiatica herbal product, ref Liu et al., 2012) it was 1.3 ± 0.3 h. For the same molecule, the results for the IC50 (in [7]; against CYP1A2 [8]) were 1900 nM and 290 nM, respectively. The inactivation rate constant (kinact) with human CYP 1A2 isozyme was 0.34 min⁻¹.

A word on the Cmax: it is the maximum level reached in the sampled fluid or tissue. By AUC is commonly meant concentration integrated over time. For orientation: IC50 means the concentration needed to halve the response being measured. As a reminder, the Tmax is the time from dosing to the highest level. For orientation: kinact means the maximal first-order rate at which the target is inactivated.
